# Laboratory results taken from patent publication US11464763B2, “Parasiticidal compositions comprising an isoxazoline active agent, methods and uses thereof” (BOEHRINGER INGELHEIM ANIMAL HEALTH USA INC., priority 2011, dated 2022).
# Experiments:
# Assay type in all cases: in vivo
# Haematobia irritans = test: Pour-on efficacy against Haematobia irritans (horn fly) in cattle (Example 14); conditions: Group 2: pour-on 10% in DES, 1 ml/10 kg
# Amblyomma americanum = test: Dose characterization of spot-on formulations against Amblyomma americanum ticks in dogs (Example 4)
# Protocol: The efficacy of a spot-on composition of the invention comprising an isoxazoline compound (Cmpd. A) in a carrier vehicle comprising either DES alone or DES+lauryl lactate (LL), against ticks (Amblyomma americanum), in dogs was studied. The compositions contained 3.0%, 4.5%, or 6.0% Cmpd. A in either DES alone or DES+lauryl lactate, which delivered doses of […], respectively, of Cmpd. A to dogs infested with A. Americanum ticks.
# Seven Treatment Groups were evaluated. Treatment Group 1 was administered a placebo formulation and served as a control. Treatment Groups 2, 3 and 4 were administered a topical formulation comprising 6.0% (w/v), 4.5% (w/v) and 3.0% (w/v) of Cmpd. A in DES, respectively, corresponding to doses of 4.0 mg/kg, 3.0 mg/kg and 2.0 mg/kg, respectively. Treatment Groups 5, 6 and 7 were administered a topical formulation comprising 6.0% (w/v), 4.5% (w/v) and 3.0% (w/v) of Cmpd. A in DES+9% lauryl lactate, respectively, corresponding to doses of […], 3.0 mg/kg and 2.0 mg/kg body weight Cmpd. A, respectively.
# All dogs were treated once topically on Day 0 by parting the hair and applying the solution from a syringe directly onto the skin in a single spot on the midline of the neck between the base of the skull and the shoulder blades.
# All dogs were infested with approximately 50 A. americanum on Days −1, 7, 14, 21, 28, 35 and 42. Ticks were counted upon removal on Days 2, 9, 16, 23, 30, 37 and 44. The % reduction of ticks for each Group is presented Table 5 below.
# Linognathus vituli = test: Pour-on efficacy against Linognathus vituli (sucking lice) in cattle (Example 16)
# Protocol: The efficacy of two pour-on formulations of the invention comprising isoxazoline Compound A at doses of 2.5 mg/kg and 10 mg/kg were tested against natural and induced infestations with Linognathus vituli (sucking lice) in cattle compared with an untreated control. Four healthy head of cattle weighing between 100 to 300 kg were used in each study group. Cattle in Group 1 were untreated (control). Cattle in Group 2 were treated on Day 0 with a pour-on formulation comprising Compound A at a concentration of 2.5% (w/v) in DES at a dose of 2.5 mg/kg; and cattle in Group 3 were treated on Day 0 with a pour-on formulation comprising Compound A at a concentration of 10% (w/v) in DES at a dose of 10 mg/kg. The formulation was applied by measuring the required amount of the solution into a marked disposable syringe and applying the material evenly along the mid-line of the back of each animal from the withers to the tail head.
# Live lice (adults plus nymphs) were counted on days 2, 7, 14, 21, 28, 35, 42, 49 and 56 by counting lice on six selected sites approximately 5 cm×15 cm on the body surface of the animal by direct examination. In the absence of lice on the selected sites, a thorough body search was conducted. The total louse counts per animal were determined by summation of the live louse numbers at each site per animal. Tables 17A and 17B below show the efficacy of the two pour-on formulations against Linognathus vituli over 56 days. As the tables show, both pour-on formulations were efficacious through at least day 56 of the study with 100% efficacy observed starting day 7. Efficacy on day 2 of the study was greater than 90% in each of the study groups. The long lasting efficacy against Linognathus vituli from one topical treatment is unexpected and surprising.
structure (smiles),measurement,setting,value
"O=C(CNC(=O)c1ccc(C2=NOC(c3cc(Cl)cc(C(F)(F)F)c3)(C(F)(F)F)C2)c2ccccc12)NCC(F)(F)F (stereo not drawn) [Compound A, 4-[5-[3-chloro-5-(trifluoromethyl)phenyl]-4,5-dihydro-5-(trifluoromethyl)-3-isoxazolyl]-N-[2-oxo-2-[(2,2,2-trifluoroethyl)amino]ethyl]-1-naphthalanecarboxamide]",% Reduction,Haematobia irritans; Day 35 (5 h),42.6%
same,% Reduction,Haematobia irritans; Day 36 (24 h),90.4%
same,% Reduction Ticks,"Amblyomma americanum; Group 2: 6.0% in DES, 4.0 mg/kg, Day 2",97.4%
same,% Reduction Ticks,"Amblyomma americanum; Group 2: 6.0% in DES, 4.0 mg/kg, Day 9",100.0%
same,% Reduction Ticks,"Amblyomma americanum; Group 2: 6.0% in DES, 4.0 mg/kg, Day 16",100.0%
same,% Reduction Ticks,"Amblyomma americanum; Group 2: 6.0% in DES, 4.0 mg/kg, Day 23",100.0%
same,% Reduction Ticks,"Amblyomma americanum; Group 2: 6.0% in DES, 4.0 mg/kg, Day 30",82.5%
same,% Reduction Ticks,"Amblyomma americanum; Group 2: 6.0% in DES, 4.0 mg/kg, Day 37",97.9%
same,% Reduction Ticks,"Amblyomma americanum; Group 2: 6.0% in DES, 4.0 mg/kg, Day 44",84.2%
same,% Reduction Ticks,"Amblyomma americanum; Group 3: 4.5% in DES, 3.0 mg/kg, Day 2",90.0%
same,% Reduction Ticks,"Amblyomma americanum; Group 3: 4.5% in DES, 3.0 mg/kg, Day 9",100.0%
same,% Reduction Ticks,"Amblyomma americanum; Group 3: 4.5% in DES, 3.0 mg/kg, Day 16",97.6%
same,% Reduction Ticks,"Amblyomma americanum; Group 3: 4.5% in DES, 3.0 mg/kg, Day 23",82.0%
same,% Reduction Ticks,"Amblyomma americanum; Group 3: 4.5% in DES, 3.0 mg/kg, Day 30",70.0%
same,% Reduction Ticks,"Amblyomma americanum; Group 3: 4.5% in DES, 3.0 mg/kg, Day 37",80.4%
same,% Reduction Ticks,"Amblyomma americanum; Group 3: 4.5% in DES, 3.0 mg/kg, Day 44",56.0%
same,% Reduction Ticks,"Amblyomma americanum; Group 4: 3.0% in DES, 2.0 mg/kg, Day 2",95.4%
same,% Reduction Ticks,"Amblyomma americanum; Group 4: 3.0% in DES, 2.0 mg/kg, Day 9",100.0%
same,% Reduction Ticks,"Amblyomma americanum; Group 4: 3.0% in DES, 2.0 mg/kg, Day 16",100.0%
same,% Reduction Ticks,"Amblyomma americanum; Group 4: 3.0% in DES, 2.0 mg/kg, Day 23",79.5%
same,% Reduction Ticks,"Amblyomma americanum; Group 4: 3.0% in DES, 2.0 mg/kg, Day 30",90.3%
same,% Reduction Ticks,"Amblyomma americanum; Group 4: 3.0% in DES, 2.0 mg/kg, Day 37",57.1%
same,% Reduction Ticks,"Amblyomma americanum; Group 4: 3.0% in DES, 2.0 mg/kg, Day 44",38.8%
same,% Reduction Ticks,"Amblyomma americanum; Group 5: 6.0% in DES+9% lauryl lactate, 4.0 mg/kg, Day 2",100.0%
same,% Reduction Ticks,"Amblyomma americanum; Group 5: 6.0% in DES+9% lauryl lactate, 4.0 mg/kg, Day 9",100.0%
same,% Reduction Ticks,"Amblyomma americanum; Group 5: 6.0% in DES+9% lauryl lactate, 4.0 mg/kg, Day 16",100.0%
same,% Reduction Ticks,"Amblyomma americanum; Group 5: 6.0% in DES+9% lauryl lactate, 4.0 mg/kg, Day 23",94.3%
same,% Reduction Ticks,"Amblyomma americanum; Group 5: 6.0% in DES+9% lauryl lactate, 4.0 mg/kg, Day 30",100.0%
same,% Reduction Ticks,"Amblyomma americanum; Group 5: 6.0% in DES+9% lauryl lactate, 4.0 mg/kg, Day 37",89.0%
same,% Reduction Ticks,"Amblyomma americanum; Group 5: 6.0% in DES+9% lauryl lactate, 4.0 mg/kg, Day 44",84.8%
same,% Reduction Ticks,"Amblyomma americanum; Group 6: 4.5% in DES+9% lauryl lactate, 3.0 mg/kg, Day 2",98.4%
same,% Reduction Ticks,"Amblyomma americanum; Group 6: 4.5% in DES+9% lauryl lactate, 3.0 mg/kg, Day 9",100.0%
same,% Reduction Ticks,"Amblyomma americanum; Group 6: 4.5% in DES+9% lauryl lactate, 3.0 mg/kg, Day 16",100.0%
same,% Reduction Ticks,"Amblyomma americanum; Group 6: 4.5% in DES+9% lauryl lactate, 3.0 mg/kg, Day 23",93.1%
same,% Reduction Ticks,"Amblyomma americanum; Group 6: 4.5% in DES+9% lauryl lactate, 3.0 mg/kg, Day 30",92.1%
same,% Reduction Ticks,"Amblyomma americanum; Group 6: 4.5% in DES+9% lauryl lactate, 3.0 mg/kg, Day 37",89.0%
same,% Reduction Ticks,"Amblyomma americanum; Group 6: 4.5% in DES+9% lauryl lactate, 3.0 mg/kg, Day 44",53.6%
same,% Reduction Ticks,"Amblyomma americanum; Group 7: 3.0% in DES+9% lauryl lactate, 2.0 mg/kg, Day 2",98.4%
same,% Reduction Ticks,"Amblyomma americanum; Group 7: 3.0% in DES+9% lauryl lactate, 2.0 mg/kg, Day 9",100.0%
same,% Reduction Ticks,"Amblyomma americanum; Group 7: 3.0% in DES+9% lauryl lactate, 2.0 mg/kg, Day 16",100.0%
same,% Reduction Ticks,"Amblyomma americanum; Group 7: 3.0% in DES+9% lauryl lactate, 2.0 mg/kg, Day 23",80.6%
same,% Reduction Ticks,"Amblyomma americanum; Group 7: 3.0% in DES+9% lauryl lactate, 2.0 mg/kg, Day 30",88.9%
same,% Reduction Ticks,"Amblyomma americanum; Group 7: 3.0% in DES+9% lauryl lactate, 2.0 mg/kg, Day 37",74.6%
same,% Reduction Ticks,"Amblyomma americanum; Group 7: 3.0% in DES+9% lauryl lactate, 2.0 mg/kg, Day 44",42.4%
same,efficacy against ticks,"Amblyomma americanum; Treatment Group 2 (4.0 mg/kg in DES alone), through Week 3",at least 90%
same,efficacy against ticks,"Amblyomma americanum; Treatment Groups 5 and 6 (4.0 and 3.0 mg/kg in DES+LL), through five weeks",at least 90%
same,% Reduction,"Linognathus vituli; Group 2: pour-on 2.5% in DES, 2.5 mg/kg, Day 2",92%
same,% Reduction,"Linognathus vituli; Group 2: pour-on 2.5% in DES, 2.5 mg/kg, Day 7",100%
same,% Reduction,"Linognathus vituli; Group 2: pour-on 2.5% in DES, 2.5 mg/kg, Day 14",100%
same,% Reduction,"Linognathus vituli; Group 2: pour-on 2.5% in DES, 2.5 mg/kg, Day 21",100%
same,% Reduction,"Linognathus vituli; Group 2: pour-on 2.5% in DES, 2.5 mg/kg, Day 28",100%
same,% Reduction,"Linognathus vituli; Group 3: pour-on 10% in DES, 10 mg/kg, Day 2",98%
same,% Reduction,"Linognathus vituli; Group 3: pour-on 10% in DES, 10 mg/kg, Day 7",100%
same,% Reduction,"Linognathus vituli; Group 3: pour-on 10% in DES, 10 mg/kg, Day 14",100%
same,% Reduction,"Linognathus vituli; Group 3: pour-on 10% in DES, 10 mg/kg, Day 21",100%
same,% Reduction,"Linognathus vituli; Group 3: pour-on 10% in DES, 10 mg/kg, Day 28",100%
same,efficacy against Linognathus vituli,"Linognathus vituli; both pour-on formulations, starting day 7 through at least day 56",100%
same,efficacy against Linognathus vituli,"Linognathus vituli; each of the study groups, day 2",greater than 90%
same,% Reduction,"Linognathus vituli; live lice counts, Group 2: pour-on 2.5% (w/v) in DES, 2.5 mg/kg, Day 35",92%
same,% Reduction,"Linognathus vituli; live lice counts, Group 2: pour-on 2.5% (w/v) in DES, 2.5 mg/kg, Day 42",100%
same,% Reduction,"Linognathus vituli; live lice counts, Group 2: pour-on 2.5% (w/v) in DES, 2.5 mg/kg, Day 49",100%
same,% Reduction,"Linognathus vituli; live lice counts, Group 2: pour-on 2.5% (w/v) in DES, 2.5 mg/kg, Day 56",100%
same,% Reduction,"Linognathus vituli; live lice counts, Group 3: pour-on 10% (w/v) in DES, 10 mg/kg, Day 35",98%
same,% Reduction,"Linognathus vituli; live lice counts, Group 3: pour-on 10% (w/v) in DES, 10 mg/kg, Day 42",100%
same,% Reduction,"Linognathus vituli; live lice counts, Group 3: pour-on 10% (w/v) in DES, 10 mg/kg, Day 49",100%
same,% Reduction,"Linognathus vituli; live lice counts, Group 3: pour-on 10% (w/v) in DES, 10 mg/kg, Day 56",100%
